The numbers were not newly measured in paper PMC7029871, “Development and validation of a sensitive LC-MS/MS method for the quantitation of IMB-YH-4py5-2H, an antituberculosis candidate, and its application to the pharmacokinetic study” (PLoS ONE, 2020), which cites them from elsewhere.

Structures are written as SMILES. Like-named read-outs stand apart in the source and are kept apart here.

For the data set, the system named is Mycobacterium tuberculosis strains. Conditions: cited from earlier work.

For `CN(C)C(=O)/C=C/C(=O)c1ccc(-c2ccncc2)cc1.Cl` [IMB-YH-4py5-2H, (E)-N,N-dimethyl-4-oxo-4-(4-(pyridin-4-yl)phenyl)but-2-enamide hydrochloride], the MICs (sensitive and resistant M. tuberculosis strains, method and reference not given) was 0.25 to 0.5 µg/mL.

Turning to `COC(=O)/C=C/C(=O)c1ccc(OC)cc1` [YH-8, (E)-Methyl-4-aryl-4-oxabut-2-enoate, reference compound], under “drug-sensitive and drug-resistant M. tuberculosis strains”, the MICs is 0.25 to 1 µg/mL.
